Reference: ChEMBL document CHEMBL4699468, “Structural hybridization as a facile approach to new drug candidates” (Bioorg Med Chem Lett, 2020)
Converted amounts (≈) assume the structure as drawn.

Columns and labels:
Staphylococcus aureus [1] = assay: Antibacterial activity against Staphylococcus aureus; format: functional
Escherichia coli [2] = assay: Antibacterial activity against Escherichia coli; format: functional
Plasmodium falciparum [3] = assay: Antiplasmodial activity against Plasmodium falciparum W2; format: functional, organism-based
Plasmodium falciparum [4] = assay: Antiplasmodial activity against chloroquine-resistant Plasmodium falciparum Dd2 infected in human erythrocytes incubated for 72 hrs by SYBR green staining based fluorescence assay; format: functional, organism-based; settings: Dd2, 72 h
Plasmodium falciparum [5] = assay: Antiplasmodial activity against chloroquine-resistant Plasmodium falciparum K1 infected in human erythrocytes incubated for 72 hrs by SYBR green staining based fluorescence assay; format: functional, organism-based; settings: K1, 72 h
Pseudomonas aeruginosa [6] = assay: Antibacterial activity against Pseudomonas aeruginosa ATCC 91433; format: functional
MCF7 = assay: Cytotoxicity against human MCF7 by microculture tetrazolium assay; format: functional, cell-based
Pseudomonas aeruginosa [7] = assay: Antibacterial activity against Pseudomonas aeruginosa ATCC 27853 incubated for 24 hrs by CLSI-based macrobroth dilution method; format: functional
Escherichia coli [8] = assay: Antibacterial activity against Escherichia coli incubated for 18 hrs by agar dilution method; format: functional
Staphylococcus aureus [9] = assay: Antibacterial activity against Staphylococcus aureus incubated for 18 hrs by agar dilution method; format: functional
Morganella morganii [10] = assay: Antibacterial activity against Proteus morganii incubated for 18 hrs by agar dilution method; format: functional
Providencia rettgeri = assay: Antibacterial activity against Proteus rettgeri incubated for 18 hrs by agar dilution method; format: functional
Citrobacter freundii = assay: Antibacterial activity against Citrobacter freundii incubated for 18 hrs by agar dilution method; format: functional
Hafnia alvei = assay: Antibacterial activity against Enterobacter hafniae incubated for 18 hrs by agar dilution method; format: functional
Morganella morganii [11] = assay: Antibacterial activity against Proteus morganii NCTC235 incubated for 18 hrs by agar dilution method; format: functional
Proteus mirabilis = assay: Antibacterial activity against Proteus mirabilis 431 incubated for 18 hrs by agar dilution method; format: functional
Klebsiella aerogenes = assay: Antibacterial activity against Klebsiella aerogenes incubated for 18 hrs by agar dilution method; format: functional
Enterobacter cloacae = assay: Antibacterial activity against Enterobacter cloacae incubated for 18 hrs by agar dilution method; format: functional
Plasmodium falciparum [12] = assay: Antiplasmodial activity against […] Plasmodium falciparum 3D7 infected in human erythrocytes incubated for 72 hrs by SYBR green staining based fluorescence assay; format: functional, organism-based; settings: 3D7, 72 h
A549 = assay: Growth inhibition of human A549 cells incubated for 72 hrs by MTT assay; format: functional, cell-based; settings: A549, 72 h
MDA-MB-231 = assay: Growth inhibition of human MDA-MBA-231 cells incubated for 72 hrs by MTT assay; format: functional, cell-based; settings: MDA-MB-231, 72 h
HT-29 = assay: Growth inhibition of human HT-29 cells incubated for 72 hrs by MTT assay; format: functional, cell-based; settings: HT-29, 72 h
Human betaherpesvirus 5 = assay: Antiviral activity against GFP-transfected Human cytomegalovirus AD169 infected in human HFF cells measured after 7 days by GFP fluorometry; format: functional, cell-based; settings: Human betaherpesvirus 5, AD169, HFF, 168 h

COc1cc(Cc2cnc(N)nc2N)cc(OC)c1OCCN1CCN(c2cc3c(cc2F)c(=O)c(C(=O)O)cn3C2CC2)CC1
MIC (Staphylococcus aureus [1]): 0.5 µg/mL (≈ 0.789 µM)
MIC (Escherichia coli [2]): 1 µg/mL (≈ 1.58 µM)

COc1cc(NCCCCn2c(-c3ccc(F)cc3)c(-c3ccccc3)c(C(=O)Nc3ccccc3)c2C(C)C)c2ncccc2c1
IC50 (Plasmodium falciparum [3]): 1410 nM

C[C@H]1[C@@H](OCc2cn(-c3ccnc4cc(Cl)ccc34)nn2)O[C@@H]2O[C@@]3(C)CC[C@H]4[C@H](C)CC[C@@H]1[C@@]24OO3
EC50 (Plasmodium falciparum [4]): 5.9 nM
EC50 (Plasmodium falciparum [5]): 4.3 nM

C[C@H]1[C@H](OC(=O)CCC(=O)NCCNc2ccnc3cc(Cl)ccc23)O[C@@H]2O[C@@]3(C)CC[C@H]4[C@H](C)CC[C@@H]1[C@@]24OO3
EC50 (Plasmodium falciparum [4]): 1 nM
EC50 (Plasmodium falciparum [5]): 0.78 nM

N[C@@H](CCl)C(=O)N[C@@H](CCl)C(=O)OCC1=C(C(=O)O)N2C(=O)[C@@H](NC(=O)Cc3cccs3)[C@H]2SC1
MIC (Escherichia coli [2]): 7.05 µg/mL (≈ 12.5 µM)

NCCCCC(N)C(=O)N(CCCCCCCCCCCCO[C@@H]1[C@@H](O[C@@H]2O[C@H](CO)[C@@H](O)[C@H](N)[C@H]2O)[C@H](N)C[C@H](N)[C@H]1O[C@H]1O[C@H](CN)[C@@H](O)[C@H](O)[C@H]1N)Cc1c2ccccc2c(Cl)c2ccccc12 (stereo not given in full)
MIC (Pseudomonas aeruginosa [6]): 8 µg/mL (≈ 7.85 µM)

C[C@H]1[C@@H](CCS(=O)(=O)CC[C@H]2O[C@@H]3O[C@]4(C)CC[C@H]5[C@H](C)CC[C@@H]([C@H]2C)[C@@]35OO4)O[C@@H]2O[C@]3(C)CC[C@H]4[C@H](C)CC[C@@H]1[C@@]24OO3
EC50 (MCF7): 25 nM

NC[C@H]1O[C@H](O[C@H]2[C@H](OCCCCCCCCCCCCN3CCN(c4cc5c(cc4F)c(=O)c(C(=O)O)cn5C4CC4)CC3)[C@@H](O[C@@H]3O[C@H](CO)[C@@H](O)[C@H](N)[C@H]3O)[C@H](N)C[C@@H]2N)[C@H](N)[C@@H](O)[C@@H]1O
MIC (Pseudomonas aeruginosa [7]): 4 µg/mL (≈ 4.08 µM)

C[C@H]1[C@H](OC(=O)CCC(=O)OCc2cn(-c3ccnc4cc(Cl)ccc34)nn2)O[C@@H]2O[C@@]3(C)CC[C@H]4[C@H](C)CC[C@@H]1[C@@]24OO3
EC50 (Plasmodium falciparum [4]): 4.2 nM
EC50 (Plasmodium falciparum [5]): 1.8 nM

O=C(O)C1=C(CSc2cccc[n+]2[O-])CS[C@@H]2[C@H](NC(=O)[C@H](O)c3ccccc3)C(=O)N12
MIC (Escherichia coli [8]): 0.5 µg/mL (≈ 1.06 µM)
MIC (Staphylococcus aureus [9]): 0.5 µg/mL (≈ 1.06 µM)
MIC (Morganella morganii [10]): 0.5 µg/mL (≈ 1.06 µM)
MIC (Providencia rettgeri): 0.5 µg/mL (≈ 1.06 µM)
MIC (Citrobacter freundii): 0.5 µg/mL (≈ 1.06 µM)
MIC (Hafnia alvei): 0.5 µg/mL (≈ 1.06 µM)
MIC (Morganella morganii [11]): 0.5 µg/mL (≈ 1.06 µM)
MIC (Proteus mirabilis): 0.5 µg/mL (≈ 1.06 µM)
MIC (Klebsiella aerogenes): 0.5 µg/mL (≈ 1.06 µM)
MIC (Enterobacter cloacae): 0.5 µg/mL (≈ 1.06 µM)

C[C@H]1[C@H](OC(=O)CCC(=O)OCCOC(=O)CC(=O)OCCOC(=O)CCC(=O)O[C@@H]2O[C@@H]3O[C@@]4(C)CC[C@H]5[C@H](C)CC[C@@H]([C@H]2C)[C@@]35OO4)O[C@@H]2O[C@@]3(C)CC[C@H]4[C@H](C)CC[C@@H]1[C@@]24OO3
EC50 (Plasmodium falciparum [12]): 1.4 nM

C[C@H]1[C@@H](OCCNC(=Nc2cc(C(F)(F)F)ccc2Cl)NCCO[C@H]2O[C@@H]3O[C@]4(C)CC[C@H]5[C@H](C)CC[C@@H]([C@H]2C)[C@@]35OO4)O[C@@H]2O[C@]3(C)CC[C@H]4[C@H](C)CC[C@@H]1[C@@]24OO3
EC50 (A549): 240 nM
EC50 (MDA-MB-231): 1420 nM
EC50 (HT-29): 1400 nM

C[C@H]1[C@H](OC(=O)CCC(=O)OCCCNc2ncnc3c(C#N)c(-c4ccc(C(F)(F)F)cc4)cc(-c4ccc(C(F)(F)F)cc4)c23)O[C@@H]2O[C@]3(C)CC[C@H]4[C@H](C)CC[C@@H]1[C@@]24OO3
EC50 (Human betaherpesvirus 5): 100 nM

CCN(CC)CCCC(C)Nc1ccnc2cc(Cl)ccc12 (stereo not given) [CHLOROQUINE]
EC50 (Plasmodium falciparum [4]): 165 nM
EC50 (Plasmodium falciparum [5]): 303 nM
